In patent US9944608B2, “Herbicidal pyridazinone derivatives” (Syngenta Participations AG, priority 2014, dated 2018):

Key:
Assay in all cases: B1 Post-emergence efficacy, glasshouse pot test
Assay type in all cases: in vivo
Conditions in all cases: post-emergence application, 1000 g/ha, evaluated after 13 days
[1] = system: Alopecurus myosuroides (ALOMY)
Procedure: (§1) B1 Post-Emergence Efficacy Seeds of a variety of test species are sown in standard soil in pots:—Solanum nigrum (SOLNI), Amaranthus retoflexus (AMARE), Setaria faberi (SETFA), Alopecurus myosuroides (ALOMY), Echinochloa crus-galli (ECHCG), Ipomoea hederacea (IPOHE), Lolium perenne (LOLPE). After 8 days cultivation (post-emergence) under controlled conditions in a glasshouse (at 24/16° C., day/night; 14 hours light; 65% humidity), the plants are sprayed with an aqueous spray solution derived from the formulation of the technical active ingredient in acetone/water (50:50) solution containing 0.5% Tween 20 (polyoxyethelyene sorbitan monolaurate, CAS RN 9005-64-5). Compounds are applied at 1000 g/ha. The test plants are then grown in a glasshouse under controlled conditions in a glasshouse (at 24/16° C., day/night; 14 hours light; 65% humidity) and watered twice daily. After 13 days, the test is evaluated for the percentage damage caused to the plant. The biological activities are assessed on a five point scale (5=80-100%; 4=60-79%; 3=40-59%; 2=20-39%; 1=0-19%). A blank value in the table is indicative that the compound was not tested on that species.

[2] = system: Setaria faberi (SETFA)
Procedure: as §1

[3] = system: Amaranthus retoflexus (AMARE)
Procedure: as §1

[4] = system: Ipomoea hederacea (IPOHE)
Procedure: as §1

[5] = system: Echinochloa crus-galli (ECHCG)
Procedure: as §1

[6] = system: Solanum nigrum (SOLNI)
Procedure: as §1

[7] = system: Lolium perenne (LOLPE)
Procedure: as §1

Structure (SMILES)	ALOMY: percentage damage caused to the plant (five point scale) [1]	SETFA: percentage damage caused to the plant (five point scale) [2]	AMARE: percentage damage caused to the plant (five point scale) [3]	IPOHE: percentage damage caused to the plant (five point scale) [4]	ECHCG: percentage damage caused to the plant (five point scale) [5]	SOLNI: percentage damage caused to the plant (five point scale) [6]	LOLPE: percentage damage caused to the plant (five point scale) [7]
CC1=NN(C)C(=O)C(c2c(Cl)ccc(Cl)c2OCc2ccccc2)C1=O (stereo not drawn) [Compound 1.001, 4-(2-benzyloxy-3,6-dichloro-phenyl)-2,6-dimethyl-pyridazine-3,5-dione]	4 (4=60-79%)	5 (5=80-100%)	5 (5=80-100%)	5 (5=80-100%)	5 (5=80-100%)	5 (5=80-100%)	
Cc1nn(C)c(=O)c(-c2c(F)ccc(Cl)c2OCc2ccccc2)c1O [Compound 1.004]		5 (5=80-100%)	5 (5=80-100%)	5 (5=80-100%)	5 (5=80-100%)	5 (5=80-100%)	5 (5=80-100%)
Cc1ccc(Cl)c(OCc2ccccc2)c1-c1c(O)c(C)nn(C)c1=O [Compound 1.076]		5 (5=80-100%)	2 (2=20-39%)	5 (5=80-100%)	5 (5=80-100%)	5 (5=80-100%)	4 (4=60-79%)
Cc1nn(C)c(=O)c(-c2ccccc2OCc2ccccc2)c1O [Compound 1.002]		1 (1=0-19%)	4 (4=60-79%)	1 (1=0-19%)	1 (1=0-19%)	5 (5=80-100%)	1 (1=0-19%)
Cc1nn(C)c(=O)c(-c2c(Cl)cccc2OCc2ccccc2)c1O [Compound 1.068]		4 (4=60-79%)	3 (3=40-59%)	4 (4=60-79%)	4 (4=60-79%)	5 (5=80-100%)	2 (2=20-39%)
COc1ccc(COc2c(Cl)ccc(Cl)c2-c2c(O)c(C)nn(C)c2=O)cc1 [Compound 1.067]		5 (5=80-100%)	2 (2=20-39%)	5 (5=80-100%)	5 (5=80-100%)	5 (5=80-100%)	5 (5=80-100%)
Cn1nc(C2CC2)c(O)c(-c2c(F)ccc(Cl)c2OCc2ccccc2)c1=O [Compound 1.012]		5 (5=80-100%)	5 (5=80-100%)	5 (5=80-100%)	5 (5=80-100%)	5 (5=80-100%)	5 (5=80-100%)
CCc1nn(C)c(=O)c(-c2c(C(F)(F)F)ccc(Cl)c2OCc2ccccc2)c1O [Compound 1.072]		5 (5=80-100%)	2 (2=20-39%)	5 (5=80-100%)	4 (4=60-79%)	5 (5=80-100%)	2 (2=20-39%)
Cc1nn(C)c(=O)c(-c2c(Cl)cc(Cl)cc2OCc2ccccc2)c1O [Compound 1.006]		3 (3=40-59%)	5 (5=80-100%)	5 (5=80-100%)	3 (3=40-59%)	5 (5=80-100%)	2 (2=20-39%)
Cn1nc([S+](C)[O-])c(O)c(-c2c(Cl)ccc(Cl)c2OCc2ccccc2)c1=O (stereo not drawn) [Compound 1.083]		3 (3=40-59%)	1 (1=0-19%)	5 (5=80-100%)	1 (1=0-19%)	5 (5=80-100%)	2 (2=20-39%)
CCc1nn(C)c(=O)c(-c2c(F)ccc(Cl)c2OCc2ccccc2)c1O [Compound 1.010]		3 (3=40-59%)	5 (5=80-100%)	5 (5=80-100%)	4 (4=60-79%)	5 (5=80-100%)	4 (4=60-79%)
Cn1nc(S(C)(=O)=O)c(O)c(-c2c(Cl)ccc(Cl)c2OCc2ccccc2)c1=O [Compound 1.082]		2 (2=20-39%)	1 (1=0-19%)	3 (3=40-59%)	1 (1=0-19%)	5 (5=80-100%)	1 (1=0-19%)
Cc1nn(C)c(=O)c(-c2c(C(F)(F)F)ccc(F)c2OCc2ccccc2)c1O [Compound 1.069]		5 (5=80-100%)	3 (3=40-59%)	5 (5=80-100%)	5 (5=80-100%)	5 (5=80-100%)	3 (3=40-59%)
Cn1nc(N)c(O)c(-c2c(F)ccc(Cl)c2OCc2ccccc2)c1=O [Compound 1.078]		3 (3=40-59%)	3 (3=40-59%)	4 (4=60-79%)	2 (2=20-39%)	5 (5=80-100%)	1 (1=0-19%)
CN(C)c1nn(C)c(=O)c(-c2c(Cl)ccc(Cl)c2OCc2ccccc2)c1O [Compound 1.087]		5 (5=80-100%)	5 (5=80-100%)	5 (5=80-100%)	5 (5=80-100%)	5 (5=80-100%)	5 (5=80-100%)
CN(C)c1nn(C)c(=O)c(-c2c(F)ccc(Cl)c2OCc2ccccc2)c1O [Compound 1.085]		3 (3=40-59%)	5 (5=80-100%)	5 (5=80-100%)	4 (4=60-79%)	5 (5=80-100%)	5 (5=80-100%)
Cc1nn(C)c(=O)c(-c2c(F)ccc(F)c2OCc2ccccc2)c1O [Compound 1.016]		5 (5=80-100%)	5 (5=80-100%)	5 (5=80-100%)	5 (5=80-100%)	5 (5=80-100%)	4 (4=60-79%)
